Here are results for 21 molecules from US7842808B2, “Anti-migraine spirocycles” (Bristol-Myers Squibb Company, priority 2002, dated 2010).

Like-named read-outs stand apart in the source and are kept apart here.

Experiment [1] concerns the target T1, human CGRP receptor (SK-N-MC cells) (Homo sapiens, UniProt O60894+Q16602).
T1 construct: SK-N-MC cells that endogenously express the human CGRP receptor; endogenous in cells; host or cells: SK-N-MC cells
In words: Cyclic AMP Assay, functional antagonism of CGRP-induced cyclic AMP formation. Format: cell-based. The method, then:
Functional Antagonism. Antagonism of the compounds of invention was determined by measuring the formation of cyclic AMP (adenosine 3′5′-cyclic monophosphate) in SK-N-MC cells that endogenously express the human CGRP receptor. […] For cyclic AMP measurements SK-N-MC cells were incubated with 0.3 nM CGRP alone or in the presence of various concentrations of the compounds of invention for 30 min at room temperature. […] Cyclic AMP was extracted using the lysis reagent and its concentration was determined by radioimmunoassay using RPA559 cAMP SPA Direct Screening Assay Kit (Amersham Pharmacia Biotech). IC50 values were calculated using Excel fit.

The target of experiment [2] is T2, CGRP receptor (SK-N-MC cell membranes) (Homo sapiens, UniProt O60894+Q16602).
T2 construct: endogenous in cells; host or cells: SK-N-MC cells (membrane homogenate)
T2 sequence (Q16602 23-461): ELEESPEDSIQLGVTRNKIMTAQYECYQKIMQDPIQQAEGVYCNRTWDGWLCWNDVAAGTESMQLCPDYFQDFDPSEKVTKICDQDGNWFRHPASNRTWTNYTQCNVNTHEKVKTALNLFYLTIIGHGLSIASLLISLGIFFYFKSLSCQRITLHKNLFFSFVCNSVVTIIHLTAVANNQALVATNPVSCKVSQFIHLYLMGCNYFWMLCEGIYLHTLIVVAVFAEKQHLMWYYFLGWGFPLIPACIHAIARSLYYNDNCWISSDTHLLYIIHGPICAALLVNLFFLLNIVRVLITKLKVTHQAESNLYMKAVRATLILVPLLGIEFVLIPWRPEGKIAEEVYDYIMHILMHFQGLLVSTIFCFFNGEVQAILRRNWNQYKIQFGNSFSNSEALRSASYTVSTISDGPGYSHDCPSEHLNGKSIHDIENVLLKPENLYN
T2 sequence (O60894 27-148): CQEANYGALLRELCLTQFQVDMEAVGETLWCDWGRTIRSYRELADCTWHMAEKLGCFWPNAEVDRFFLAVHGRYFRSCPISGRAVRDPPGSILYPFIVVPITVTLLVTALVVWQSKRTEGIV
The experiment can be described thus: CGRP Binding Assay ([125I]-CGRP radioligand binding, SK-N-MC homogenate).

Where [3] appears, read: SK-N-MC cells, 0.3 nM CGRP, read-out: cAMP Function IC50.
[4] abbreviates: displacement of [125I]-CGRP, SK-N-MC homogenate, read-out: CGRP binding IC50.

T1 sequence (Q16602 23-461): as the sequence (Q16602 23-461) above
T1 sequence (O60894 27-148): as the sequence (O60894 27-148) above

In the case of `O=C(C[C@H](NCc1ccc2[nH]ncc2c1)C(=O)N1CCC(N2CCCCC2)CC1)N1CCC(N2Cc3ccccc3NC2=O)CC1` [Example 94, (L)-1-[1,4′]Bipiperidinyl-1′-yl-2-((5′-indazolyl)-methyl-amino)-4-[4-(2-oxo-1,4-dihydro-2H-quinazolin-3-yl)-piperidin-1-yl]-butane-1,4-dione], the 50% inhibitory concentration (IC50) in experiment [1] (setting [3]) and in experiment [2] (setting [4]) was 100 to 1000 nM in each case.

In the case of `Cc1cc(CC(NC(=O)N2CCC3(CC2)N=C(c2ccccc2)NC3=O)C(=O)N(C)C)cc2cn[nH]c12` (racemic) [Example 36, (±)-4-Oxo-2-phenyl-1,3,8-triaza-spiro[4,5]dec-1-ene-8-carboxylic acid[1-dimethylcarbamoyl-2-(7-methyl-1H-indazol-5-yl)-ethyl]amide], the concentration for half-maximal inhibition (IC50) in experiment [1] (setting [3]) and in experiment [2] (setting [4]) was 10 to 100 nM in each case.

As to `O=C(C[C@H](Nc1nc(Cl)nc2[nH]cnc12)C(=O)N1CCC(N2CCCCC2)CC1)N1CCC(N2Cc3ccccc3NC2=O)CC1` [Example 89, (L)-1-[1,4′]Bipiperidinyl-1′-yl-2-(2-chloro-9H-purin-6-ylamino)-4-[4-(2-oxo-1,4-dihydro-2H-quinazolin-3-yl)-piperidin-1-yl]-butane-1,4-dione], the concentration for half-maximal inhibition (IC50) in experiment [1] (setting [3]) was 10 to 100 nM; in experiment [2] (setting [4]), 100 to 1000 nM.

`Cc1cc(CC(NC(=O)N2CCC3(CC2)OC(=O)Nc2ccccc23)C(=O)N2CCCCC2)cc2cn[nH]c12` (racemic) [Example 26, (±)-1-(7-Methyl-1H-indazol-5-ylmethyl)-2-(1-piperidinyl)-2-oxoethyl]-1′,2′-dihydro-2′-oxospiro-[4H-3′,1-benzoxazine-4,4′-piperidine]-1-carboxamide]: the IC50 in experiment [1] (setting [3]) and in experiment [2] (setting [4]) was 10 to 100 nM each time.

Turning to `O=C(N[C@H](Cc1csc2ccccc12)C(=O)N1CCC(N2CCCCC2)CC1)N1CCC2(CC1)Cc1ccccc1NC2=O` [Example 61, (R)-1-Oxo-3,4-benzo-2,9-diaza-spiro[5.5]undec-3-ene-9-carboxylic acid (1-benzo[b]thiophen-3-ylmethyl-2-[1,4′]bipiperidinyl-1′-yl-2-oxo-ethyl)-amide], the IC50 in experiment [1] (setting [3]) and in experiment [2] (setting [4]) was 100 to 1000 nM each time.

As to `CC(C)CN1CCN(C(=O)C(Cc2ccc3[nH]ccc3c2)NC(=O)N2CCC(n3c(=O)[nH]c4ccccc43)CC2)CC1` (racemic) [Example 7, (±)-4-(2-Oxo-2,3-dihydro-benzoimidazol-1-yl)-piperidine-1-carboxylic acid[1-(1H-indol-5-ylmethyl)-2-(4-isobutyl-piperazin-1-yl)-2-oxo-ethyl]-amide], the half-maximal inhibitory concentration (IC50) in experiment [1] (setting [3]) and in experiment [2] (setting [4]) was 100 to 1000 nM in each case.

As to `O=C(NC(Cc1ccc2[nH]ncc2c1)C(=O)N1CCC(N2Cc3ccccc3NC2=O)CC1)N1CCC(N2Cc3ccccc3NC2=O)CC1` (stereo not drawn) [Example 37, 4-(2-Oxo-1,4-dihydro-2H-quinazolin-3-yl)-piperidine-1-carboxylic acid{1-(1H-indazol-5-ylmethyl)-2-oxo-2-[4-(2-oxo-1,4-dihydro-2H-quinazolin-3-yl)-piperidin-1-yl]-ethyl}-amide], the IC50 in experiment [1] (setting [3]) was 10 to 100 nM; in experiment [2] (setting [4]), under 10 nM.

Turning to `CC1(C)CN(CC(NC(=O)N2CCC(N3Cc4ccccc4NC3=O)CC2)C(=O)N2CCC(N3CCCCC3)CC2)Cc2cn[nH]c21` (racemic) [Example 56, (±)-4-(2-Oxo-1,4-dihydro-2H-quinazolin-3-yl)-piperidine-1-carboxylic acid[2-[1,4′]bipiperidinyl-1′-yl-1-(7,7-dimethyl-1,4,6,7-tetrahydro-pyrazolo[4,3-c]pyridin-5-ylmethyl)-2-oxo-ethyl]-amide], the IC50 in experiment [1] (setting [3]) and in experiment [2] (setting [4]) was under 10 nM throughout.

For the molecule `Cc1cc(CC(CC(=O)N2CCC3(CC2)OC(=O)Nc2ccccc23)C(=O)N2CCCCC2)cc2cn[nH]c12` (racemic) [Example 77, (±)-2-(7-Methyl-1H-indazol-5-ylmethyl)-1-(piperidin-1-yl)-4-[1′,2′-dihydro-2′-oxospiro-[4H-3′,1-benzoxazine-4,4′-piperidinyl]-butane-1,4-dione], the 50% inhibitory concentration (IC50) in experiment [1] (setting [3]) and in experiment [2] (setting [4]) was 10 to 100 nM in each case.

Regarding `O=C(NC(Cc1ccc2[nH]ncc2c1)C(=O)N1CCN(C(=O)OCc2ccccc2)CC1)N1CCC(N2Cc3ccccc3NC2=O)CC1` (stereo not drawn) [Example 38, 4-(3-(1H-Indazol-5-yl)-2-{[4-(2-oxo-1,4-dihydro-2H-quinazolin-3-yl)-piperidine-1-carbonyl]-amino}-propionyl)-piperazine-1-carboxylic acid benzyl ester], the IC50 in experiment [1] (setting [3]) and in experiment [2] (setting [4]) was 10 to 100 nM in each case.

Regarding `Cc1cc(CC(CC(=O)N2CCC(N3Cc4ccccc4NC3=O)CC2)C(=O)N2CC(C)OC(C)C2)cc2cn[nH]c12` (racemic) [Example 73, (±)-1-(2,6-Dimethyl-morpholin-4-yl)-2-(7-methyl-1H-indazol-5-ylmethyl)-4-[4-(2-oxo-1,4-dihydro-2H-quinazolin-3-yl)-piperidin-1-yl]-butane-1,4-dione], the 50% inhibitory concentration (IC50) in experiment [1] (setting [3]) and in experiment [2] (setting [4]) was 10 to 100 nM in each case.

On to `Cc1cc(CC(CC(=O)N2CCC(N3Cc4ccccc4NC3=O)CC2)C(=O)N2CCOCC2)cc2cn[nH]c12` (racemic) [Example 75, (±)-2-(7-Methyl-1H-indazol-5-ylmethyl)-1-morpholin-4-yl-4-[4-(2-oxo-1,4-dihydro-2H-quinazolin-3-yl)-piperidin-1-yl]-butane-1,4-dione], for which the IC50 in experiment [1] (setting [3]) was 10 to 100 nM; in experiment [2] (setting [4]), under 10 nM.

As for `Cc1cc(CC(NC(=O)N2CCC3(CC2)NC(=O)Nc2ccccc23)C(=O)N2CCCCC2)cc2cn[nH]c12` (racemic) [Example 24, (±)-1-(7-Methyl-1H-indazol-5-ylmethyl)-2-(1-piperidinyl)-2-oxoethyl]-2′,3′-dihydro-2′-oxospiro-[piperidine-4,4′-(1H)-quinazoline]-1-carboxamide], the IC50 in experiment [1] (setting [3]) and in experiment [2] (setting [4]) was 10 to 100 nM in each case.

As to `CCC(C)CN1CCN(C(=O)C(Cc2ccc3[nH]ncc3c2)NC(=O)N2CCC(N3Cc4ccccc4NC3=O)CC2)CC1` (stereo not drawn) [Example 40a, 4-(2-Oxo-1,4-dihydro-2H-quinazolin-3-yl)-piperidine-1-carboxylic acid{1-(1H-indazol-5-ylmethyl)-2-[4-(2-methyl-butyl)-piperazin-1-yl]-2-oxo-ethyl}-amide], the IC50 in experiment [1] (setting [3]) and in experiment [2] (setting [4]) was under 10 nM throughout.

`O=C(NC(Cc1ccc2[nH]ncc2c1)C(=O)N1CCC2(CC1)OCCO2)N1CCC(n2c(=O)[nH]c3ccccc32)CC1` (racemic) [Example 10, (±)-4-(2-Oxo-2,3-dihydro-benzoimidazol-1-yl)-piperidine-1-carboxylic acid[2-(1,4-dioxa-8-aza-spiro[4.5]dec-8-yl)-1-(1H-indazol-5-ylmethyl)-2-oxo-ethyl]-amide]: the IC50 in experiment [1] lay within 10 to 100 nM; in experiment [2], 100 to 1000 nM.

`COc1ccc(C(=O)N[C@@H](CC(=O)N2CCC(N3Cc4ccccc4NC3=O)CC2)C(=O)N2CCC(N3CCCCC3)CC2)cc1` [Example 99, (L)-N-{1-([1,4′]Bipiperidinyl-1′-carbonyl)-3-oxo-3-[4-(2-oxo-1,4-dihydro-2H-quinazolin-3-yl)-piperidin-1-yl]-propyl}-4-methoxy-benzamide]: the IC50 in experiment [1] (setting [3]) and in experiment [2] (setting [4]) was over 1000 nM throughout.

For the molecule `O=C(NC(Cc1ccc2[nH]ncc2c1)C(=O)N1CCNCC1)N1CCC(N2Cc3ccccc3NC2=O)CC1` (stereo not drawn) [Example 39, 4-(2-Oxo-1,4-dihydro-2H-quinazolin-3-yl)-piperidine-1-carboxylic acid[1-(1H-indazol-5-ylmethyl)-2-oxo-2-piperazin-1-yl-ethyl]-amide], the 50% inhibitory concentration (IC50) in experiment [1] (setting [3]) and in experiment [2] (setting [4]) was 100 to 1000 nM in each case.

Consider `C#CCNC(=O)C(CC(=O)N1CCC(N2Cc3ccccc3NC2=O)CC1)Cc1cc(C)c2[nH]ncc2c1` (racemic) [Example 84, (±)-2-(7-Methyl-1H-indazol-5-ylmethyl)-4-oxo-4-[4-(2-oxo-1,4-dihydro-2H-quinazolin-3-yl)-piperidin-1-yl]-N-prop-2-ynyl-butyramide], for which the IC50 in experiment [1] (setting [3]) and in experiment [2] (setting [4]) was 10 to 100 nM in each case.

Regarding `O=C(NC(Cc1ccc2[nH]ncc2c1)C(=O)N1CCC2(CC1)OCCO2)N1CCC(N2Cc3ccccc3NC2=O)CC1` (racemic) [Example 11, (±)-4-(2-Oxo-1,4-dihydro-2H-quinazolin-3-yl)-piperidine-1-carboxylic acid[2-(1,4-dioxa-8-aza-spiro[4.5]dec-8-yl)-1-(1H-indazol-5-ylmethyl)-2-oxo-ethyl]-amide], the IC50 in experiment [1] and in experiment [2] (setting [4]) was 10 to 100 nM in each case.

`CC(C)CN1CCN(C(=O)C(Cc2ccc3[nH]ncc3c2)NC(=O)N2CCC(n3c(=O)[nH]c4ccccc43)CC2)CC1` (racemic) [Example 9, (±)-4-(2-Oxo-2,3-dihydro-benzoimidazol-1-yl)-piperidine-1-carboxylic acid[1-(1H-indazol-5-ylmethyl)-2-(4-isobutyl-piperazin-1-yl)-2-oxo-ethyl]-amide]: the IC50 in experiment [1] (setting [3]) and in experiment [2] (setting [4]) was 10 to 100 nM in each case.

Regarding `Cc1cc(CC(NC(=O)N2CCC3(CC2)N=C(c2ccccc2)NC3=O)C(=O)N2CCCCC2)cc2cn[nH]c12` (racemic) [Example 35, (±)-4-Oxo-2-phenyl-1,3,8-triaza-spiro[4,5]dec-1-ene-8-carboxylic acid {1-(7-methyl-1H-indazol-5-yl methyl)-2-[1-piperidinylyl]-2-oxo-ethyl}-amide], the IC50 in experiment [1] (setting [3]) and in experiment [2] (setting [4]) was 10 to 100 nM throughout.

The term IC50 denotes the concentration that inhibits the measured activity by half.
